Results reported in PubChem BioAssay (NCI).
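Results reflect a 48-hour exposure of cells in 96-well plates to compound at five concentrations. Abbreviation: GI50, concentration required for 50% inhibition of growth. TGI is the concentration that stops growth completely.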

How the values were obtained:
Test in all cases: inhibition of tumour cell growth, NCI panel, 48 h
[1] = test system: 786-0 renal
[2] = test system: A498 renal
[3] = test system: BT-549 breast
[4] = test system: CCRF-CEM leukemia
[5] = test system: COLO 205 colon
[6] = test system: EKVX NSCLC
[7] = test system: HOP-92 NSCLC
[8] = test system: HS 578T breast
[9] = test system: K-562 leukemia
[10] = test system: KM20L2 colon
[11] = test system: MALME-3M melanoma
[12] = test system: NCI-H460 lung
[13] = test system: OVCAR-3 ovarian
[14] = test system: OVCAR-4 ovarian
[15] = test system: OVCAR-5 ovarian
[16] = test system: SK-MEL-28 melanoma
[17] = test system: SN12C renal
[18] = test system: T-47D breast

## O=C1C=CC=C[C@@H]2C(C3OCCO3)CC[C@H]12.[C-]#[O+].[C-]#[O+].[C-]#[O+].[Fe] (stereo not given in full)
[1]
  GI50: > 69.3 µM
  TGI: > 100 µM
[2]
  GI50: > 100 µM
  TGI: > 100 µM
[3]
  GI50: 51.4 µM
  TGI: > 100 µM
[4]
  GI50: 24.4 µM
  TGI: > 89.8 µM
[5]
  GI50: 49.9 µM
  TGI: > 70.4 µM
[6]
  GI50: > 100 µM
  TGI: > 100 µM
[7]
  GI50: > 100 µM
  TGI: > 100 µM
[8]
  GI50: > 100 µM
  TGI: > 100 µM
[9]
  GI50: 41.6 µM
  TGI: > 100 µM
[10]
  GI50: > 100 µM
  TGI: > 100 µM
[11]
  GI50: 27.9 µM
  TGI: 62.3 µM
[12]
  GI50: 45.2 µM
  TGI: > 100 µM
[13]
  GI50: 40.6 µM
  TGI: > 100 µM
[14]
  GI50: > 47.9 µM
  TGI: > 71.9 µM
[15]
  GI50: > 100 µM
  TGI: > 100 µM
[16]
  TGI: > 46.9 µM
[17]
  GI50: 76.3 µM
  TGI: > 100 µM
[18]
  GI50: > 100 µM
  TGI: > 100 µM
